In patent US6284768A, “Src family SH2 domain inhibitors” (Boehringer Ingelheim Pharmaceuticals, Inc., priority 1999, dated 2001):

What follows are compounds tested against T1, p56lck GST-SH2 (lck SH2 domain) (Homo sapiens, UniProt P06239) (assay: Receptor-ligand equilibrium binding constants by surface plasmon resonance (biosensor), lck SH2 domain). Settings: Table 1, compounds of formula (II).
T1 construct: GST (N)
Method: The general methods for the determination of Receptor-Ligand Kinetic and Equilibrium Binding Constants using Surface Plasmon Resonance as applied to the lck SH2 Domain have been described in: M. M. Morelock, R. H. Ingraham, R. Betageri.
General Biosensor Methods.
The mobile phase buffer, 10 mM HEPES, pH 7.4, 150 mM NaCl, and 0.05% P-20, was maintained at a flow rate of 5 μL/min in all experiments. All buffers and protein solutions were filtered through a 0.2 um filter and degassed immediately before use.
Strepavidin was diluted to 0.25 mg/ml in 20 mM NaOAc buffer, pH 4.5 and immobilized by free amine coupling to approximately 3000 RU for all 4 flow cells from a single sensor chip .
Surface Kd Determinations.
The surface was regenerated by 4μL of 20 mM HCl followed by 4 μL of 150 mM Tris base. The values used in the analysis were the equilibrium plateau values from which the sample refractive index has been subtracted. For the data analyzed for linear function the equilibrium plateau values without the sample refractive index subtracted were used. Free solution Kd determinations. In a 96 well microtiter plate 20 nM SH2 domain suspended in running buffer containing 0.2 mg/ml BSA and 1 mM DT'T was distributed in 100 μL per well. The highest concentration of compound tested was added to the last well and titrated with 2 fold dilutions for a final of 10 concentrations to be run. 25 μL of the mixture was injected over a strepavidin-biotin-ε-aminohexanoic acid-EGQpYEEIPIA surface and regenerated with 4 μL of 20 mM HCl. […], of 150 mM Tris base was injected after every 11 samples. Typically 8 assays were run in an overnight programmed run.

T1 sequence (P06239 127-224 limits assumed): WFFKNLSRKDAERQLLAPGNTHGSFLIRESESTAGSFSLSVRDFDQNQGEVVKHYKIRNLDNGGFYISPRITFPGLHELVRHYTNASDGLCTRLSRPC

Structure (SMILES) | Kd [nM]
Cc1ccn(Cc2ccc(C(C)C)cc2)c(=O)c1NC(=O)[C@H](Cc1ccc(C(C)(C)C(=O)O)cc1)NC(=O)Cc1cccc2ccccc12 [Compound 101] | 4300
COc1ccc(Cn2ccc(C)c(NC(=O)[C@H](Cc3ccc(NC(=O)C(=O)O)cc3)NC(=O)Cc3nc(-c4ccccc4)sc3C)c2=O)cc1 [Compound 15] | 1800
COc1ccc(Cn2ccc(C)c(NC(=O)[C@H](Cc3ccc(CC(=O)O)cc3)NC(=O)COc3cccc4ccccc34)c2=O)cc1 [Compound 72] | 2500
Cc1ccn(Cc2ccc(Cl)cc2)c(=O)c1NC(=O)[C@H](Cc1ccc(CC(=O)O)cc1)NC(=O)Cc1cccc2ccccc12 [Compound 55] | 15000
Cc1ccn(Cc2ccc(C(C)C)cc2)c(=O)c1NC(=O)[C@H](Cc1ccc(C(C)(C)C(=O)O)cc1)NC(=O)Cc1c[nH]c2ccccc12 [Compound 100] | 1500
COc1ccc(Cn2ccc(C)c(NC(=O)[C@H](Cc3ccc(N(O)C(=O)C(=O)O)cc3)NC(=O)Cc3cccc4ccccc34)c2=O)cc1 [Compound 1, 3-[2'-(S)-(1'"-Naphthylacetyl)amino-3'-[4"-(N-oxalyl, N-hydroxy)amino]benzene]propanoylamino-1-(4-methoxybenzyl)-4-methyl-2-pyridone] | 2300
COc1ccc(Cn2ccc(C)c(NC(=O)[C@H](Cc3ccc(NC(=O)C(=O)O)cc3)NC(=O)Cc3ccc4ccccc4c3)c2=O)cc1 [Compound 32] | 350
COc1ccc(Cn2ccc(C)c(NC(=O)[C@H](Cc3ccc(C(C)(C)C(=O)O)cc3)NC(=O)Cc3ccc(Br)cc3)c2=O)cc1 [Compound 110] | 180
COc1ccc(Cn2ccc(C)c(NC(=O)[C@H](Cc3ccc(NC(=O)C(=O)O)cc3)NC(=O)Cc3ccc(Br)cc3)c2=O)cc1 [Compound 36] | 1500
COc1ccc(Cn2ccc(C)c(NC(=O)[C@H](Cc3ccc(CC(=O)O)cc3)NC(=O)C3(c4ccccc4)CCCC3)c2=O)cc1 [Compound 78] | 13000
Cc1ccn(Cc2ccc(C(C)C)cc2)c(=O)c1NC(=O)[C@H](Cc1ccc(N(O)C(=O)C(=O)O)cc1)NC(=O)Cc1ccc(N(C)C)cc1 [Compound 96] | 23000
COc1ccc(Cn2ccc(C)c(NC(=O)[C@H](Cc3ccc(CC(=O)O)cc3)NC(=O)C(C)C)c2=O)cc1 [Compound 75] | 6700
COc1ccc(Cn2ccc(C)c(NC(=O)[C@H](Cc3ccc(NC(=O)C(=O)O)cc3)NC(=O)CNC(=O)c3ccccc3C(=O)O)c2=O)cc1 [Compound 31] | 680
COc1ccc(Cn2ccc(C)c(NC(=O)[C@H](Cc3ccc(C(F)(F)P(=O)(O)O)cc3)NC(C)=O)c2=O)cc1 [Compound 65] | 1300
COc1ccc(Cn2ccc(C)c(NC(=O)[C@H](Cc3ccc(NC(=O)C(=O)O)cc3)NC(=O)Nc3c(C)ccc4ccccc34)c2=O)cc1 [Compound 30] | 350
COc1ccc(Cn2ccc(C)c(NC(=O)[C@H](Cc3ccc(C(CO)C(=O)O)cc3)NC(=O)OCc3ccccc3)c2=O)cc1 (stereo partly drawn) [Compound 50, 3-[2-(S)-Benzyloxycarbonylamino-3-[4'-(1"-(R,S)-carboxy-2"-hydroxy)ethyl]benzene]propanoylamino-1-(4-methoxybentyl)-4-methyl-2-pyridone] | 39000

Structure (SMILES) | Kd [nM]
COc1ccc(Cn2ccc(C)c(NC(=O)[C@H](Cc3ccc(NC(=O)C(=O)O)cc3)NC(=O)Cc3ccccc3N(C)C)c2=O)cc1 [Compound 35] | 4000
Cc1ccn(Cc2ccccn2)c(=O)c1NC(=O)[C@H](Cc1ccc(CC(=O)O)cc1)NC(=O)Cc1cccc2ccccc12 [Compound 23] | 55700
COc1cccc(Cn2ccc(C)c(NC(=O)[C@H](Cc3ccc(CC(=O)O)cc3)NC(=O)Cc3cccc4ccccc34)c2=O)c1 [Compound 20] | 19400
COc1ccc(Cn2ccc(C)c(NC(=O)[C@H](Cc3ccc(CC(=O)O)cc3)NC(=O)C(F)(F)F)c2=O)cc1 [Compound 87] | 18000
COc1ccc(Cn2ccc(C)c(NC(=O)[C@H](Cc3ccc(CC(=O)O)cc3)NC(=O)Cc3ccc(N(C)C)cc3)c2=O)cc1 [Compound 93] | 12000
COc1ccc(Cn2ccc(C)c(NC(=O)[C@H](Cc3ccc(NC(=O)C(=O)O)cc3)NC(C)=O)c2=O)cc1 [Compound 6] | 8300
COc1ccc(Cn2ccc(C)c(NC(=O)[C@H](Cc3ccc(C(C)(C)C(=O)O)cc3)NC(=O)[C@H](C)c3cccc4ccccc34)c2=O)cc1 [Compound 44] | 1500
COc1ccc(Cn2ccc(C)c(NC(=O)[C@H](Cc3ccc(CC(=O)O)cc3)NC(=O)C3(c4ccccc4)CCCCC3)c2=O)cc1 [Compound 79] | 11000
COc1ccc(Cn2ccc(C)c(NC(=O)[C@H](Cc3ccc(NC(=O)C(=O)O)cc3)NC(=O)Cc3ccccc3Br)c2=O)cc1 [Compound 38] | 3200
COc1ccc(Cn2ccc(C)c(NC(=O)[C@H](Cc3ccc(C(C)(C)C(=O)O)cc3)NC(=O)Cc3ccc(C)cc3)c2=O)cc1 [Compound 114] | 190
COc1ccc(Cn2ccc(C)c(NC(=O)[C@H](Cc3ccc(NC(=O)C(=O)O)cc3)NC(=O)Cc3ccc(C(C)C)cc3)c2=O)cc1 [Compound 43] | 1900
CCc1ccn(Cc2ccc(OC)cc2)c(=O)c1NC(=O)[C@H](Cc1ccc(CC(=O)O)cc1)NC(=O)Cc1cccc2ccccc12 [Compound 92, 3-[2'-(S)-(1'"-Naphthylacetyl)amino-3'-(4"-carboxymethyl)benzene]propanoylamino-1-(4-methoxy)benzyl-4-ethyl-2-pyridone] | 3800
COc1ccc(Cn2ccc(C)c(NC(=O)[C@H](Cc3ccc(N(O)C(=O)C(=O)O)cc3)NC(=O)Cc3c[nH]c4ccccc34)c2=O)cc1 [Compound 24] | 2900
COc1ccc(Cn2ccc(C)c(NC(=O)[C@H](Cc3ccc(CC(=O)O)cc3)NC(=O)Cc3cc4ccccc4cc3C)c2=O)cc1 [Compound 60] | 1900
COc1ccc(C(C)n2ccc(C)c(NC(=O)[C@H](Cc3ccc(CC(=O)O)cc3)NC(=O)Cc3cccc4ccccc34)c2=O)cc1 (stereo partly shown) [Compound 83] | 2100

Second part, the compound after the results:

Kd [nM] | Structure (SMILES)
2800 | COc1ccc(Cn2ccc(C)c(NC(=O)[C@H](Cc3ccc(CC(=O)O)cc3)NC(=O)Cc3cccc(O)c3)c2=O)cc1 [Compound 165]
10000 | CCCCCCn1ccc(C)c(NC(=O)C(Cc2ccc(C(C)(C)C(=O)O)cc2)NC(=O)CCc2ccccc2)c1=O (stereo not shown) [Compound 204]
> 1300 | COc1ccc(Cn2ccc(C)c(NC(=O)[C@H](Cc3ccc(C(C)(C)C(=O)O)cc3)NC(=O)Cc3ccc(N(Cc4ccccc4)Cc4ccccc4)cc3)c2=O)cc1 [Compound 131]
3900 | COc1ccc(Cn2ccc(C)c(NC(=O)C(Cc3ccc(C(C)(C)C(=O)O)cc3)NC(=O)C(C)C)c2=O)cc1 (stereo not shown) [Compound 170]
140 | COc1ccc(Cn2cc(I)c(C)c(NC(=O)C(Cc3ccc(C(C)(C)C(=O)O)cc3)NC(=O)Cc3ccc4ccccc4c3)c2=O)cc1 (racemic) [Compound 229, 3-[2'-(R,S)-(2""-Naphthylacetyl)amino-3'4"-(1'"-carboxy-1'"-methyl)ethyl]benzene]propanoylamino-5-iodo-1-(4-methoxybenzyl)-4-methyl-2-pyridone]
1600 | COc1ccc(Cn2ccc(C)c(NC(=O)[C@H](Cc3ccc(CC(=O)O)cc3)NC(=O)Cc3cccc(OC(C)(C)C)c3)c2=O)cc1 [Compound 164]
4300 | COc1ccc(Cn2ccc(C)c(NC(=O)C(Cc3ccc(C(C)(C)C(=O)O)cc3)NC(=O)C(C)(C)C)c2=O)cc1 (stereo not shown) [Compound 171]
2700 | CCCCCCn1cc(C(=O)OC)c(C)c(NC(=O)C(Cc2ccc(C(C)(C)C(=O)O)cc2)NC(=O)C(C)(C)c2ccc3ccccc3c2)c1=O (stereo not shown) [Compound 121]
1700 | CCCCCCn1ccc(C)c(NC(=O)C(Cc2ccc(C(C)(C)C(=O)O)cc2)NC(=O)Cc2ccccc2OC)c1=O (stereo not shown) [Compound 207]
4900 | Cc1ccn(CC2CCOC2)c(=O)c1NC(=O)C(Cc1ccc(C(C)(C)C(=O)O)cc1)NC(=O)Cc1ccc2ccccc2c1 (stereo not shown) [Compound 211]
1000 | COc1ccc(Cn2ccc(C)c(NC(=O)[C@H](Cc3ccc(CC(=O)O)cc3)NC(=O)Cc3ccc(C(C)(C)C)cc3)c2=O)cc1 [Compound 162]
2500 | Cc1ccn(Cc2ccoc2)c(=O)c1NC(=O)C(Cc1ccc(C(C)(C)C(=O)O)cc1)NC(=O)Cc1ccc2ccccc2c1 (stereo not shown) [Compound 202]
2400 | COc1ccc(Cn2ccc(CCO)c(NC(=O)C(Cc3ccc(C(C)(C)C(=O)O)cc3)NC(=O)C(C)(C)c3ccc4ccccc4c3)c2=O)cc1 (stereo not shown) [Compound 223]
2500 | Cc1ccn(Cc2ccccc2)c(=O)c1NC(=O)C(Cc1ccc(C(C)(C)C(=O)O)cc1)NC(=O)Cc1ccc2ccccc2c1 (stereo not shown) [Compound 198]
9100 | Cc1ccn(CCc2ccccc2)c(=O)c1NC(=O)C(Cc1ccc(C(C)(C)C(=O)O)cc1)NC(=O)Cc1cccc2ccccc12 (stereo not shown) [Compound 199]

Same assay, conditions: Table 2, compounds of formula (III)

Kd [nM] | Structure (SMILES)
23000 | COc1ccc(Cn2ncc(C)c(NC(=O)C(Cc3ccc(C(C)(C)C(=O)O)cc3)NC(=O)Cc3ccccc3)c2=O)cc1 (stereo not shown) [Compound 245]
30000 | COc1ccc(Cn2ncc(C)c(NC(=O)C(Cc3ccc(C(C)(C)C(=O)O)cc3)NC(=O)Cc3ccccc3N)c2=O)cc1 (stereo not shown) [Compound 246]
6000 | COc1ccc(Cn2nc(C)c(C)c(NC(=O)[C@H](Cc3ccc(CC(=O)O)cc3)NC(=O)Cc3cccc4ccccc34)c2=O)cc1 [Compound 244]
